Measured values published in article PMC8580050, “Improvement of the antimicrobial potency, pharmacokinetic and pharmacodynamic properties of albicidin by incorporation of nitrogen atoms” (Chemical Science, 2021).
In brackets after ≈: the same amount, converted by molar mass. Like-named read-outs stand apart in the source and are kept apart here.

Columns and labels:
[1] = system: E. coli DSM 1116 + 50% Human Serum; assay: MIC determination in presence of 50% human serum; assay type: cell-based; details: Escherichia coli, DSM1116; E. coli DSM 1116 + 50% Human Serum; read-out: MIC
Source text: This investigation was completed by assessment of the antibacterial activity in presence of human plasma (50%) (Table 1), since high plasma protein binding can severely impair antibacterial activity and thus efficacy.
(§1) 1.1.1 In vitro experiments
(§2) Determination of Minimal inhibitory concentrations (MIC)
(§3) Approved Standard M07-A9.1
(§4) CFU mL-1. […] Albicidin and […]
(§5) and serially diluted in DMSO (100%). […]
(§6) in 0.1 N HCL, respectively.
(§7) One row of each well plate served as a […]
(§8) sterility control (only MHB II-media). […]
(§9) adding 5 µL DMSO to several wells. […]
(§10) for growth inhibition by naked eye.
(§11) Microorganisms and Cell Cultures (DSMZ): […]

E. coli BW25113 = assay: MIC determination (broth microdilution); assay type: cell-based; details: Escherichia coli
Method: as §1, §2, §3, §4, §5, §6, §7, §8, §9, §10, §11

B. subtilis DSM 10 = assay: MIC determination (broth microdilution); assay type: cell-based; details: Bacillus subtilis, DSM10; B. subtilis DSM 10; read-out: MIC
Method: as §1, §2, §3, §4, §5, §6, §7, §8, §9, §10, §11

E. coli DNA gyrase = target: T1, E. coli DNA gyrase (Escherichia coli, UniProt P0AES4+P0AES6); assay: E. coli gyrase supercoiling inhibition assay; assay type: biochemical; design: key: ↑: for stronger inhibition; ≈: for equal inhibition; ↓: for diminished inhibition compared to albicidin 1; details: constant concentration of 45 nM, compared to albicidin 1
T1 construct: purchased inspiralis Limited, Norwich, UK
Method: Escherichia coli Gyrase Supercoiling Inhibition Assay
loaded on an agarose gel.
2-15. […] Addition of DNA
All derivatives were tested at a concentration of […]

E. coli DSM 1116 = assay: MIC determination (broth microdilution); assay type: cell-based, Escherichia coli; details: Escherichia coli, DSM1116
Method: as §1, §2, §3, §4, §5, §6, §7, §8, §9, §10, §11

S. Typhimurium TA100 = assay: MIC determination (broth microdilution); assay type: cell-based, Salmonella typhimurium; details: Salmonella enterica; S. Typhimurium TA100; read-out: MIC
Method: as §1, §2, §3, §4, §5, §6, §7, §8, §9, §10, §11

M. luteus DSM1790 = assay: MIC determination (broth microdilution); assay type: cell-based, Micrococcus luteus; details: Micrococcus luteus; M. luteus DSM1790; read-out: MIC
Method: as §1, §2, §3, §4, §5, §6, §7, §8, §9, §10, §11

M. phlei DSM 750 = assay: MIC determination (broth microdilution); assay type: cell-based, Mycobacterium phlei; details: Mycolicibacterium phlei, DSM750; M. phlei DSM 750; read-out: MIC
Method: as §1, §2, §3, §4, §5, §6, §7, §8, §9, §10

Gram-negative strains = assay: MIC, primary panel; assay type: cell-based; details: Salmonella enterica, TYPHIMURIUM
Method: as §1, §2, §3, §4, §5, §6, §7, §8, §9, §10
(§12) Microorganisms and Cell Cultures (DSMZ):
Mycobacterium phlei DSM 750
Salmonella typhimurium TA100 was kindly provided by Prof. Dr. Vera Meyer (Technische Universität […]
Brötz-Oesterheldt (Tübingen, Germany)/ Prof. Dr. Heisig (Hamburg, Germany)2 Escherichia coli WT (GK571)
Escherichia coli WT-3-1 (GK796) [gyrA (S83L, D87G)]
Escherichia coli MI (GK572) [gyrA (S83L)] […]
or by Prof. Dr. Werner (Robert-Koch-Institut, Wernigerode, Germany): […]

Gram-positive strains = assay: MIC, primary panel; assay type: cell-based
Method: as §1, §2, §3, §4, §5, §6, §7, §8, §9, §10, §12
Mycobacterium phlei DSM 750 […]
Dr. Werner (Robert-Koch-Institut, Wernigerode, Germany): […]

[2] = Cell proliferation assay (HepG2 cells); details: human
Method: (§13) Cell proliferation assay (HepG2 cells)
(§14) The assay was performed by the company Eurofins (Taiwan). Cytotoxicity was representatively
(§15) according to a protocol by Ansar et al.27 This is in line with previously published cytotoxicity data on
(§16) GI = growth inhibition; TGI = total growth inhibition; LC = lethal concentration

HepG2 cells = assay: Cell proliferation assay (HepG2 cells); details: HepG2 cells
Method: as §13, §14, §15, §16

DNA gyrase = details: read-out: half maximum inhibitory concentration (IC50); cited from earlier work
[3] = E. coli DSM 1116, read-out: MIC

Work on COc1c(NC(=O)c2ccc(NC(=O)c3ccc(NC(=O)[C@H](Cc4c[nH]nn4)NC(=O)c4ccc(NC(=O)/C(C)=C/c5ccc(O)cc5)cc4)cc3)cc2)ccc(C(=O)O)c1O [Compound 11, reference compound] yielded an MIC [1] of 4 µg/mL, an MIC (E. coli BW25113) of 0.031 µg/mL (≈ 0.037 µM) and an MIC (B. subtilis DSM 10) of 4 µg/mL (≈ 4.77 µM). For the same compound, the “E. coli gyrase inhibition” value (E. coli DNA gyrase) was “≈”, the MIC (E. coli DSM 1116; [3]) was 0.063 µg/mL (≈ 0.0751 µM) and the MIC (S. Typhimurium TA100) was 0.063 µg/mL (≈ 0.0751 µM). It also gave an MIC (M. luteus DSM1790) of 8 µg/mL (≈ 9.54 µM) and an MIC (M. phlei DSM 750) of 4 µg/mL (≈ 4.77 µM).
COc1c(NC(=O)c2ccc(NC(=O)[C@H](Cc3c[nH]nn3)NC(=O)c3ccc(NC(=O)/C(C)=C/c4ccc(O)cc4)cc3)cc2)ccc(C(=O)Nc2ccc(C(=O)O)nc2)c1O [Compound 12] showed an MIC [1] of at least 8 µg/mL, an MIC (Gram-negative strains) of over 32 µg/mL and an MIC (E. coli BW25113) of at least 128 µg/mL. For the same compound, the MIC (B. subtilis DSM 10) was at least 128 µg/mL, the “E. coli gyrase inhibition” value (E. coli DNA gyrase) was “↓” and the MIC (E. coli DSM 1116; [3]) was 64 µg/mL (≈ 76.2 µM). The MIC (S. Typhimurium TA100) was 0.125 µg/mL (≈ 0.149 µM), the MIC (Gram-positive strains) was over 32 µg/mL and the MIC (M. luteus DSM1790) was 32 µg/mL (≈ 38.1 µM). The MIC (M. phlei DSM 750) was 32 µg/mL (≈ 38.1 µM).
For COc1c(NC(=O)c2ccc(NC(=O)[C@H](Cc3c[nH]nn3)NC(=O)c3ccc(NC(=O)/C(C)=C/c4ccc(O)cc4)cc3)cc2)ccc(C(=O)Nc2ccc(C(=O)O)cn2)c1O [Compound 13], the MIC [1] was 8 µg/mL, the MIC (Gram-negative strains) was 0.125 µg/mL (≈ 0.149 µM) and the MIC (E. coli BW25113) was 0.125 µg/mL (≈ 0.149 µM). The MIC (B. subtilis DSM 10) was 4 µg/mL (≈ 4.76 µM), the “E. coli gyrase inhibition” value (E. coli DNA gyrase) was “≈” and the MIC (E. coli DSM 1116) was 0.125 µg/mL (≈ 0.149 µM). For the same compound, the MIC (S. Typhimurium TA100) was 0.016 µg/mL (≈ 0.0191 µM), the MIC (Gram-positive strains) was 4 µg/mL (≈ 4.76 µM) and the MIC (M. luteus DSM1790) was 4 µg/mL (≈ 4.76 µM). The MIC (M. phlei DSM 750) was 4 µg/mL (≈ 4.76 µM).
COc1c(NC(=O)c2ccc(NC(=O)[C@H](Cc3c[nH]nn3)NC(=O)c3ccc(NC(=O)/C(C)=C/c4ccc(O)cc4)cc3)cc2)ccc(C(=O)Nc2ccc(C(=O)O)cc2)c1O [Compound 14, reference compound] showed an MIC [1] of 8 µg/mL, an MIC (E. coli BW25113) of 0.125 µg/mL (≈ 0.149 µM) and an MIC (B. subtilis DSM 10) of 0.5 µg/mL (≈ 0.596 µM). For the same compound, the “E. coli gyrase inhibition” value (E. coli DNA gyrase) was “≈”, the MIC (E. coli DSM 1116; [3]) was 0.25 µg/mL (≈ 0.298 µM) and the MIC (S. Typhimurium TA100) was 0.016 µg/mL (≈ 0.0191 µM). For the same compound, the MIC (M. luteus DSM1790) was 2 µg/mL (≈ 2.38 µM) and the MIC (M. phlei DSM 750) was 1 µg/mL (≈ 1.19 µM).
For COc1c(NC(=O)c2ccc(NC(=O)[C@H](Cc3c[nH]nn3)NC(=O)c3ccc(NC(=O)/C(C)=C/c4ccc(O)cc4)cc3)cc2)ccc(C(=O)Nc2ccccc2)c1O [Compound 15], the MIC [1] was at least 8 µg/mL, the MIC (E. coli BW25113) was 0.5 µg/mL (≈ 0.629 µM) and the MIC (B. subtilis DSM 10) was 2 µg/mL (≈ 2.52 µM). For the same compound, the “E. coli gyrase inhibition” value (E. coli DNA gyrase) was “≈”, the MIC (E. coli DSM 1116; [3]) was 1 µg/mL (≈ 1.26 µM) and the MIC (S. Typhimurium TA100) was 1 µg/mL (≈ 1.26 µM). It also gave an MIC (M. luteus DSM1790) of 1 µg/mL (≈ 1.26 µM) and an MIC (M. phlei DSM 750) of 2 µg/mL (≈ 2.52 µM).
With CN[C@@H]1C[C@H]2O[C@@](C)([C@@H]1OC)n1c3ccccc3c3c4c(c5c6ccccc6n2c5c31)C(=O)NC4 [Staurosporine, reference compound] the CC50 [2] was 5810 nM, the GI50 [2] was 5.23 nM and the “TGI (total growth inhibition)” value (HepG2 cells) was under 140 nM.
For cystobactamid, the IC50 (DNA gyrase) is given as 80 nM.
